In one data set the target is human CB1 receptor (Homo sapiens, UniProt P21554). Kind of data set: In vitro cannabinoid-CB1 receptor antagonism (WIN 55,212-2-induced [3H]-arachidonic acid release in CHO cells). To be noted: 10^−6M. In kind it is cell-based. The method, then: In vitro CB1 receptor antagonism can be assessed with the human CB1 receptor cloned in Chinese hamster ovary (CHO) cells. CHO cells are grown in a Dulbecco's Modified Eagle's medium (DMEM) culture medium, supplemented with 10% heat-inactivated fetal calf serum. Medium is aspirated and replaced by DMEM, without fetal calf serum, but containing [^3H]-arachidonic acid and incubated overnight in a cell culture stove (5% CO2/95% air; 37° C.; water-saturated atmosphere). During this period [^3H]-arachidonic acid is incorporated in membrane phospholipids. On the test day, medium is aspirated and cells are washed three times using 0.5 ml DMEM, containing 0.2% bovine serum albumin (BSA). Stimulation of the CB1 receptor by WIN 55,212-2 leads to activation of PLA2 followed by release of [^3H]-arachidonic acid into the medium. This WIN 55,212-2-induced release is concentration-dependently antagonized by CB1 receptor antagonists.
Chain of human CB1 receptor (P21554 whole entry): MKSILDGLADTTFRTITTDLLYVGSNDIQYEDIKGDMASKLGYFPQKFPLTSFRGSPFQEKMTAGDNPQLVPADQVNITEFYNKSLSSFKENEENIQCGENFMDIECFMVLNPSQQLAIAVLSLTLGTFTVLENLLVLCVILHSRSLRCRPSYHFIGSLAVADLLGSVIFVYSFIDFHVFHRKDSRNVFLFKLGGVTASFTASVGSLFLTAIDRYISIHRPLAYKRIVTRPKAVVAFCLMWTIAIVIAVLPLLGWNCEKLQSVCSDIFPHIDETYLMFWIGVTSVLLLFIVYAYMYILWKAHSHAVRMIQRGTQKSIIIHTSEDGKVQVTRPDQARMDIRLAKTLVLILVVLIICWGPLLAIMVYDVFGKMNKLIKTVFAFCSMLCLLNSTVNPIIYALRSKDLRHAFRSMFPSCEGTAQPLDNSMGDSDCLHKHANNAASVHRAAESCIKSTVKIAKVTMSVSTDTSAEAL

The target in data set [1] is human cannabinoid CB1 receptor (Homo sapiens, UniProt P21554). Kind of data set: In vitro affinity for cannabinoid-CB1 receptors ([3H]CP-55,940 radioligand binding, CHO cell membranes). To be noted: read-out: In vitro affinity pKi value (converted). The method, then:
The affinity of the compounds of the invention for cannabinoid CB1 receptors can be determined using membrane preparations of Chinese hamster ovary (CHO) cells in which the human cannabinoid CB1 receptor is stably transfected in conjunction with [^3H]CP-55,940 as radioligand. After incubation of a freshly prepared cell membrane preparation with the [^3H]-ligand, with or without addition of compounds of the invention, separation of bound and free ligand is performed by filtration over glassfiber filters. Radioactivity on the filter is measured by liquid scintillation counting.

These results are taken from US7745476B2, “1,3,5-trisubstituted 4,5-dihydro-1H-pyrazole derivatives having CB1-antagonistic activity” (Solvay Pharmaceuticals B.V., priority 2004, dated 2010).

Chain of human cannabinoid CB1 receptor (P21554 whole entry): as above

A word on the melting point: it is the temperature of the solid-liquid transition. With `O=C(NC1CCCCC1)C1=NN(c2ccc(Cl)cc2Cl)C(c2ccccc2)C1` (stereo not shown), the melting point fell in the range of 160 to 163.5 °C.

In the case of `O=C(NN1CCCCC1)C1=NN(c2ccc(Cl)cc2)C(c2ccccc2)C1` (stereo not shown) [Compound 1, N-(piperidin-1-yl)-1-(4-chlorophenyl)-5-phenyl-4,5-dihydro-(1H)-pyrazole-3-carboxamide], the melting point fell in the range of 189 to 192 °C.

Broadly, the inhibition is the share of the control response that was lost under treatment. A low value points to a response near the control. In the case of `O=C(NN1CCCCC1)C1=NN(c2ccc(Cl)cc2Cl)C(c2ccccc2)C1` (stereo not shown) [Compound 3, N-(Piperidin-1-yl)-1-(2,4-dichlorophenyl)-5-phenyl-4,5-dihydro-(1H)-pyrazole-3-carboxamide], the melting point is 163 to 165 °C. The compound further yielded an inhibition at 1 µM against human CB1 receptor of 98%. In addition, the Ki in data set [1] was 25.1 nM.

The compound `N/C(=N\S(=O)(=O)c1ccc(F)cc1)C1=NN(c2ccc(Cl)cc2)C(c2ccccc2)C1` (stereo not shown) [Compound 5, N-[(4-fluorophenyl)sulfonyl]-1-(4-chlorophenyl)-5-phenyl-4,5-dihydro-(1H)-pyrazole-3-carboxamidine] yielded a melting point of 200 to 203.5 °C.

`N/C(=N\S(=O)(=O)c1ccc(F)cc1)C1=NN(c2ccc(Cl)cc2Cl)C(c2ccccc2)C1` (stereo not shown) [Compound 6, N-[(4-fluorophenyl)sulfonyl]-1-(2,4-dichlorophenyl)-5-phenyl-4,5-dihydro-(1H)-pyrazole-3-carboxamidine] returned a melting point of 167 to 169.5 °C.

`CNC(=NS(=O)(=O)N1CCCCC1)C1=NN(c2ccc(Cl)cc2)C(c2ccccc2)C1` (stereo not shown) [Compound 10, N-[(piperidin-1-yl)sulfonyl]-N′-methyl-1-(4-chlorophenyl)-5-phenyl-4,5-dihydro-(1H)-pyrazole-3-carboxamidine]: the inhibition at 1 µM at human CB1 receptor amounted to 79%. In addition, in data set [1], the Ki was 79.4 nM.

For the compound `CN/C(=N\S(=O)(=O)N1CCOCC1)C1=NN(c2ccc(Cl)cc2Cl)C(c2ccccc2)C1` (stereo not shown) [Compound 11, N-[(Morpholin-4-yl)sulfonyl]-N′-methyl-1-(2,4-dichlorophenyl)-5-phenyl-4,5-dihydro-(1H)-pyrazole-3-carboxamidine], the melting point is 161 to 165 °C.
